This note sets out measurements from patent US20260159512A1, “BCAT2 INHIBITORS” (AGIOS PHARMACEUTICALS, INC., priority 2021, published 2026).

Structures are written as SMILES. Where “and” joins values, the source holds several entries; their conditions need not be identical. Equal entries are not always repeated.

Conditions in all cases: average where tested multiple times
Assay [1] deals with T1, BCAT2 (Homo sapiens, UniProt O15382).
T1 sequence (O15382 28-392): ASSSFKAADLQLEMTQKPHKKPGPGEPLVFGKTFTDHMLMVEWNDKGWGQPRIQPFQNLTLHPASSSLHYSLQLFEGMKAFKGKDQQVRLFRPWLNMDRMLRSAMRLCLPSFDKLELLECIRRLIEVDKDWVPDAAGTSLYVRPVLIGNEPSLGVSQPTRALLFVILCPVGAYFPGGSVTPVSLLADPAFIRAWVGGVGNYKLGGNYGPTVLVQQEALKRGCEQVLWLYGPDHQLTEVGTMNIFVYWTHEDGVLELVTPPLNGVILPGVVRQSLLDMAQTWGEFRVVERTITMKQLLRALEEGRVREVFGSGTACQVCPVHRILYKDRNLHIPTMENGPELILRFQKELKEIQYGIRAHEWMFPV
In words: BCAT2 in vitro cell inhibition using engineered A549 cells (KMV cell assay, 13C6-KMV by LC-MS/MS). In kind it is cell-based. Details: The result was an engineered A549 cell line that expressed endogenous BCAT2; endogenous in cells; host or cells: A549 cells with MUT and BCAT1 knocked out by CRISPR/CAS9.

Assay [2] concerns the target T1, BCAT2. The assay is described as follows: BCAT2 in vitro enzyme inhibition assay (resazurin/diaphorase-coupled fluorescence). The format is biochemical. Put shortly: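 Coupled fluorescence readout: glutamate formed from L-leucine/α-ketoglutarate transamination drives GDH/NAD/diaphorase reduction of resazurin (Ex 540/Em 590). Human BCAT2 was first exposed 1 h at room temperature to compound, top final 100 μM in 3-fold, 10-point series; substrate reaction ran 1 h before SDS quench, in technical duplicate with DMSO max and enzyme-free min controls.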
A general note: Resazurin is reduced to fluorescent resorufin, in cell work by metabolically active cells.

Another assay deals with T2, hBCAT1 (Homo sapiens, UniProt P54687).
T2 sequence (P54687 1-386): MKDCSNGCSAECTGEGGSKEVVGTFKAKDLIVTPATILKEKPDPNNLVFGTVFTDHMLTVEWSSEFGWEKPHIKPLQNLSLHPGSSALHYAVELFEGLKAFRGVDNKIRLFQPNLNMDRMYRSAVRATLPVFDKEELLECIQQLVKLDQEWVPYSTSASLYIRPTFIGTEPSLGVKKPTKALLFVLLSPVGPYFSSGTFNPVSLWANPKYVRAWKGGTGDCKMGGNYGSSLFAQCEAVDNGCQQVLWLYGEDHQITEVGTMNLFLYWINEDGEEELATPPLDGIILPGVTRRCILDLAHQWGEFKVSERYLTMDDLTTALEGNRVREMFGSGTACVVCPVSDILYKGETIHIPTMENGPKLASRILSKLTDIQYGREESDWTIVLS
In words: BCAT1 in vitro enzyme inhibition assay (resazurin/diaphorase-coupled fluorescence). The format is biochemical. In short, it runs like this: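 Human BCAT1 activity read by resazurin/diaphorase-coupled fluorescence. Compounds added from 50× DMSO stocks at 1:50, giving 10-point 3-fold titrations from 100 μM top final concentration. Run in technical duplicate; repeat tests averaged.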

A word on the IC50: it is the concentration at which inhibition is half-maximal.

As to `Cc1cnn(-c2cc3c(cn2)nc(-c2ccccc2F)n3[C@@H]2CCC[C@H](NC(=O)c3ncc(Cl)s3)[C@H]2O)n1` [Example 246, 5-chloro-N-((1S,2R,3R)-3-(2-(2-fluorophenyl)-6-(4-methyl-2H-1,2,3-triazol-2-yl)-1H-imidazo[4,5-c]pyridin-1-yl)-2-hydroxycyclohexyl)thiazole-2-carboxamide], the IC50 on BCAT2 [1] is ≤ 0.1 µM; on BCAT2 [2] it was ≤ 0.1 µM; against hBCAT1, < 0.5 µM.
`O=C(N[C@H]1CCC[C@@H](n2c(-c3ccccc3F)nc3cnc(-c4ncco4)cc32)[C@@H]1O)c1ncc(Cl)s1` [Example 248, 5-chloro-N-((1S,2R,3R)-3-(2-(2-fluorophenyl)-6-(oxazol-2-yl)-1H-imidazo[4,5-c]pyridin-1-yl)-2-hydroxycyclohexyl)thiazole-2-carboxamide]: the figures for the IC50 on BCAT2 [1], on BCAT2 [2] and against hBCAT1 were ≤ 0.1 µM, ≤ 0.1 µM and < 0.5 µM, respectively.
As to `CC(C)Cc1nc2cnc(-c3nc[nH]n3)cc2n1[C@@H]1CCC[C@H](NC(=O)c2ncc(Cl)s2)[C@H]1O` [Example 250, 5-chloro-N-((1S,2R,3R)-2-hydroxy-3-(2-isobutyl-6-(1H-1,2,4-triazol-3-yl)-1H-imidazo[4,5-c]pyridin-1-yl)cyclohexyl)thiazole-2-carboxamide], the figures for the IC50 on BCAT2 [1], against BCAT2 [2] and at hBCAT1 were ≤ 0.1 µM, ≤ 0.1 µM and < 0.5 µM, respectively.
As to `O=C(N[C@H]1C[C@H](O)C[C@@H](n2c(-c3ccccc3F)nc3cnc(-c4nc[nH]n4)cc32)C1)c1ccc(Cl)s1` [Example 254, 5-chloro-N-((1R,3S,5S)-3-(2-(2-fluorophenyl)-6-(1H-1,2,4-triazol-3-yl)-1H-imidazo[4,5-c]pyridin-1-yl)-5-hydroxycyclohexyl)thiophene-2-carboxamide], the results for the IC50 on BCAT2 [1], at BCAT2 [2] and at hBCAT1 were ≤ 0.1 µM, ≤ 0.1 µM and < 0.5 µM, respectively.
`CC(C)Cc1nc2cnc(-c3nc[nH]n3)cc2n1[C@@H]1C[C@@H](O)C[C@H](NC(=O)c2ncc(Cl)s2)C1` [Example 256, 5-chloro-N-((1R,3S,5S)-3-hydroxy-5-(2-isobutyl-6-(1H-1,2,4-triazol-3-yl)-1H-imidazo[4,5-c]pyridin-1-yl)cyclohexyl)thiazole-2-carboxamide]: the IC50 on BCAT2 [1] is ≤ 0.1 µM; at BCAT2 [2], ≤ 0.1 µM; against hBCAT1, < 0.5 µM.
As for `O=C(N[C@H]1C[C@H](O)C[C@@H](n2c(-c3ccccc3F)nc3cnc(-c4ncco4)cc32)C1)c1ncc(Cl)s1` [Example 260, 5-chloro-N-((1R,3S,5S)-3-(2-(2-fluorophenyl)-6-(oxazol-2-yl)-1H-imidazo[4,5-c]pyridin-1-yl)-5-hydroxycyclohexyl)thiazole-2-carboxamide], the half-maximal inhibitory concentration (IC50) against BCAT2 [1] is ≤ 0.1 µM; on BCAT2 [2], ≤ 0.1 µM; at hBCAT1, < 0.5 µM.
With `CC(C)Cc1nc2cnc(-c3ccccn3)cc2n1[C@H]1C[C@@H](NC(=O)c2ncc(Cl)s2)CN(C)C1` [Example 262, 5-chloro-N-((3R,5S)-5-(2-isobutyl-6-(pyridin-2-yl)-1H-imidazo[4,5-c]pyridin-1-yl)-1-methylpiperidin-3-yl)thiazole-2-carboxamide], the IC50 is > 1 µM against BCAT2 [1], 0.1 to 0.5 µM at BCAT2 [2] and > 5 µM against hBCAT1.
Take `CN1C[C@H](NC(=O)c2ccc(Cl)s2)C[C@H](n2c(-c3ccccc3F)nc3cnc(-c4nc[nH]n4)cc32)C1` [Example 264, 5-chloro-N-((3R,5S)-5-(2-(2-fluorophenyl)-6-(1H-1,2,4-triazol-3-yl)-1H-imidazo[4,5-c]pyridin-1-yl)-1-methylpiperidin-3-yl)thiophene-2-carboxamide]: the IC50 on BCAT2 [1] was ≤ 0.1 µM; against BCAT2 [2] it was ≤ 0.1 µM; at hBCAT1 it was < 0.5 µM.
Regarding `O=C(N[C@H]1CCC[C@@H](n2c(-c3ccccc3F)nc3cnc(O[C@H]4CCOC4)cc32)C1)c1ncc(Cl)s1` [Example 267, 5-chloro-N-((1S,3R)-3-(2-(2-fluorophenyl)-6-(((S)-tetrahydrofuran-3-yl)oxy)-1H-imidazo[4,5-c]pyridin-1-yl)cyclohexyl)thiazole-2-carboxamide], the IC50 at BCAT2 [1] was 0.1 to 0.5 µM; at BCAT2 [2], 0.1 to 0.5 µM; against hBCAT1, < 0.5 µM.
For the compound `Nc1cc2c(cn1)nc(-c1ccccc1F)n2[C@@H]1C[C@@H](O)C[C@H](NC(=O)c2ncc(Cl)s2)C1` [Example 270, N-((1R,3S,5S)-3-(6-amino-2-(2-fluorophenyl)-1H-imidazo[4,5-c]pyridin-1-yl)-5-hydroxycyclohexyl)-5-chlorothiazole-2-carboxamide], the IC50 against BCAT2 [1] is > 1 µM; on BCAT2 [2], ≤ 0.1 µM; against hBCAT1, < 0.5 µM.
Turning to `O=C(N[C@H]1C[C@H](O)C[C@@H](n2c(-c3ccccc3F)nc3cnccc32)C1)c1ncc(Cl)s1` [Example 272, 5-chloro-N-((1R,3S,5S)-3-(2-(2-fluorophenyl)-1H-imidazo[4,5-c]pyridin-1-yl)-5-hydroxycyclohexyl)thiazole-2-carboxamide], the IC50 was 0.5 to 1 µM at BCAT2 [1], ≤ 0.1 µM against BCAT2 [2] and 0.5 to 1 µM against hBCAT1.
As to `CNc1cc2c(cn1)nc(-c1ccccc1F)n2[C@@H]1C[C@@H](O)C[C@H](NC(=O)c2ncc(Cl)s2)C1` [Example 274, 5-chloro-N-((1R,3S,5S)-3-(2-(2-fluorophenyl)-6-(methylamino)-1H-imidazo[4,5-c]pyridin-1-yl)-5-hydroxycyclohexyl)thiazole-2-carboxamide], the IC50 was 0.5 to 1 µM at BCAT2 [1], ≤ 0.1 µM against BCAT2 [2] and < 0.5 µM against hBCAT1.
Regarding `O=C(N[C@H]1C[C@H](O)C[C@@H](n2c(-c3ccccc3F)nc3cnc(F)cc32)C1)c1ncc(Cl)s1` [Example 276, 5-chloro-N-((1R,3S,5S)-3-(6-fluoro-2-(2-fluorophenyl)-1H-imidazo[4,5-c]pyridin-1-yl)-5-hydroxycyclohexyl)thiazole-2-carboxamide], the IC50 at BCAT2 [1] is ≤ 0.1 µM; against BCAT2 [2], ≤ 0.1 µM; on hBCAT1, < 0.5 µM.
For the compound `COc1cc2c(cn1)nc(-c1ccccc1F)n2[C@@H]1C[C@@H](O)C[C@H](NC(=O)c2ncc(Cl)s2)C1` [Example 278, 5-chloro-N-((1R,3S,5S)-3-(2-(2-fluorophenyl)-6-methoxy-1H-imidazo[4,5-c]pyridin-1-yl)-5-hydroxycyclohexyl)thiazole-2-carboxamide], the values for the IC50 against BCAT2 [1], at BCAT2 [2] and on hBCAT1 were 0.1 to 0.5 µM, ≤ 0.1 µM and < 0.5 µM, respectively.
For the compound `CNC(=O)c1cc2nc(-c3ccccc3F)n(C3CCCC(NC(=O)c4ncc(Cl)s4)C3O)c2cn1` (stereo not drawn) [Example 281, 5-chloro-N-(3-(2-(2-fluorophenyl)-6-(methylcarbamoyl)-3H-imidazo[4,5-c]pyridin-3-yl)-2-hydroxycyclohexyl)thiazole-2-carboxamide], the IC50 against BCAT2 [1] is ≤ 0.1 µM; against BCAT2 [2], ≤ 0.1 µM; on hBCAT1 it was < 0.5 µM.
`CC(=O)N1CC(NC(=O)c2ccc(Br)s2)CC(n2c(-c3ncccc3F)nc3cc(-c4nnco4)ccc32)C1` (stereo not drawn) [Example 283, N-(1-acetyl-5-(2-(3-fluoropyridin-2-yl)-5-(1,3,4-oxadiazol-2-yl)-1H-benzo[d]imidazol-1-yl)piperidin-3-yl)-5-bromothiophene-2-carboxamide]: the IC50 was > 1 µM on BCAT2 [1]; ≤ 0.1 µM at BCAT2 [2]; > 5 µM and 1 to 5 µM on hBCAT1.
Take `CC(=O)N1CC(NC(=O)c2ccc(Br)s2)CC(n2c(-c3ccccn3)nc3ccc(-c4ncon4)cc32)C1` (stereo not drawn) [Example 286, N-(5-(6-(1,2,4-oxadiazol-3-yl)-2-(pyridin-2-yl)-1H-benzo[d]imidazol-1-yl)-1-acetylpiperidin-3-yl)-5-bromothiophene-2-carboxamide]: the figures for the IC50 on BCAT2 [1], at BCAT2 [2] and against hBCAT1 were 0.1 to 0.5 µM, ≤ 0.1 µM and 1 to 5 µM, respectively.
